Here are results for 17 compounds from ChEMBL document CHEMBL5321239, “Exploration of imatinib and nilotinib-derived templates as the P2-Ligand for HIV-1 protease inhibitors: Design, synthesis, protein X-ray structural studies, and biological evaluation” (Eur J Med Chem, 2023).

SMILES strings stand for the structures. Some results are limits rather than exact numbers.

Experiment [1] has as its system Human immunodeficiency virus. As to the kind of experiment: Antiviral activity against HIV LAI infected in human MT2 cells assessed as inhibition of viral growth. In kind it is functional, organism-based. The settings on record: Human immunodeficiency virus 1, LAI.
Experiment [2] deals with Human immunodeficiency virus type 1 protease (Human immunodeficiency virus 1, UniProt Q72874). As to the kind of experiment: Inhibition of HIV-1 protease expressed in Escherichia coli assessed as inhibition constant using Ac-Thr-Ile-Met-Met-Gln-Arg as substrate preincubated for 10 mins followed by substrate addition by HPLC analysis.

Regarding `COc1ccc(S(=O)(=O)N(CC(C)C)C[C@@H](O)[C@H](Cc2ccccc2)NC(=O)c2cccc(Nc3nc(C(F)(F)F)cs3)c2C)cc1`, the half-maximal inhibitory concentration (IC50) in experiment [1] is above 1000 nM. In the case of `COc1ccc(S(=O)(=O)N(CC(C)C)C[C@@H](O)[C@H](Cc2ccccc2)NC(=O)c2cc(Nc3nc(C)cs3)ccc2C)cc1`, in experiment [1], the IC50 is above 1000 nM. Turning to `COc1ccc(S(=O)(=O)N(CC(C)C)C[C@@H](O)[C@H](Cc2ccccc2)NC(=O)c2cccc(Nc3nc(-c4cccnc4)cs3)c2C)cc1`, the inhibition constant (Ki) in experiment [2] amounted to 19.3 nM. Besides, in experiment [1], the IC50 is above 1000 nM. Consider `COCc1csc(Nc2ccc(C)c(C(=O)N[C@@H](Cc3ccccc3)[C@H](O)CN(CC(C)C)S(=O)(=O)c3ccc(OC)cc3)c2)n1`, for which the IC50 in experiment [1] turned out to be 630 nM. With `Cc1ccc(C(=O)N[C@@H](Cc2ccccc2)[C@H](O)CN(CC(C)C)S(=O)(=O)c2ccc(N)cc2)cc1Nc1nccc(-c2cccnc2)n1`, in experiment [1], the IC50 amounted to 66.8 nM. Still for that read-out and setting: the figure for `COc1ccc(S(=O)(=O)N(CC(C)C)C[C@@H](O)[C@H](Cc2ccccc2)NC(=O)c2ccc(C)c(Nc3nc(-c4cccnc4)cs3)c2)cc1` is 390 nM; for `COc1ccc(S(=O)(=O)N(CC(C)C)C[C@@H](O)[C@H](Cc2ccccc2)NC(=O)c2cccc(Nc3nc(C)cs3)c2C)cc1` it is above 1000 nM; for `COc1ccc(S(=O)(=O)N(CC(C)C)C[C@@H](O)[C@H](Cc2ccccc2)NC(=O)c2cc(C)cc(Nc3nc(C)cs3)c2)cc1` it is above 1000 nM. Same read-out and setting: the figure for `COc1ccc(S(=O)(=O)N(CC(C)C)C[C@@H](O)[C@H](Cc2ccccc2)NC(=O)c2cc(C)cc(Nc3nc(-c4cccnc4)cs3)c2)cc1` is above 1000 nM. On to `COc1ccc(S(=O)(=O)N(CC(C)C)C[C@@H](O)[C@H](Cc2ccccc2)NC(=O)c2ccc(C)c(Nc3nc(C)cs3)c2)cc1`, for which, in experiment [2], the Ki was determined as 26.5 nM. Further, in experiment [1], the half-inhibitory concentration (IC50) was above 1000 nM. Regarding `COc1ccc(S(=O)(=O)N(CC(C)C)C[C@@H](O)[C@H](Cc2cc(F)cc(F)c2)NC(=O)c2ccc(C)c(Nc3nccc(-c4cccnc4)n3)c2)cc1`, the IC50 in experiment [1] is 124 nM. On to `COc1ccc(S(=O)(=O)N(CC(C)C)C[C@@H](O)[C@H](Cc2ccccc2)NC(=O)c2ccc(C)c(Nc3nc(C(F)(F)F)cs3)c2)cc1`, for which the IC50 in experiment [1] was above 1000 nM. The same measure, in the same setting: in the case of `CC(C)CN(C[C@@H](O)[C@H](Cc1ccccc1)NC(=O)O[C@H]1CO[C@H]2OCC[C@H]21)S(=O)(=O)c1ccc(N)cc1` it was 2.1 nM. On to `COc1ccc(S(=O)(=O)N(CC(C)C)C[C@@H](O)[C@H](Cc2ccccc2)NC(=O)c2cc(Nc3nc(-c4cccnc4)cs3)ccc2C)cc1`, for which the Ki in experiment [2] amounted to 8.7 nM. In addition, in experiment [1], the IC50 turned out to be 580 nM. For `Cc1ccc(C(=O)N[C@@H](Cc2cc(F)cc(F)c2)[C@H](O)CN(CC(C)C)S(=O)(=O)c2ccc(N)cc2)cc1Nc1nccc(-c2cccnc2)n1`, the concentration for half-maximal inhibition (IC50) in experiment [1] was 212 nM.

Consider `COc1ccc(S(=O)(=O)N(CC(C)C)C[C@@H](O)[C@H](Cc2ccccc2)NC(=O)c2ccc(C)c(Nc3nccc(-c4cccnc4)n3)c2)cc1`, for which, in experiment [2], the Ki came to 0.028 nM. The IC50 in experiment [1] was 154 nM.

For the compound `COc1ccc(S(=O)(=O)N(CC(C)C)C[C@@H](O)[C@H](Cc2ccccc2)NC(=O)c2ccc(C)c(Nc3nc(-c4cccnc4)cs3)c2C)cc1`, the IC50 in experiment [1] was found to be 510 nM.
